Experimental data taken from ChEMBL document CHEMBL5360641, “4'-Ethynyl-2'-deoxy-2'-β-fluoro-2-fluoroadenosine: A Highly Potent and Orally Available Clinical Candidate for the Treatment of HIV-1 Infection” (J Med Chem, 2023).

Columns and labels:
[1] = AUC (0 to t) in male Sprague-Dawley rat at 10 mg/kg, IG measured at 24 hrs LC-MS/MS analysis; format: ADME, organism-based; design: dose 10 mg/kg, time 24 hrs, route ig; settings: in vivo, po
[2] = Drug uptake in Beagle dog PBMC cells assessed as ((2R,3R,4S,5R)-5-(6-amino-2-fluoro-9H-purin-9-yl)-2-ethynyl-4-fluoro-3-hydroxytetrahydrofuran-2-yl)methyl tetrahydrogen triphosphate formation at 6 to 12 mg/kg, po measured at 2 to 168 hrs by LC-MS/MS analysis; format: ADME, organism-based, Canis lupus familiaris; settings: in vivo, dose lower 6 mg/kg, time lower 2 hrs, dose upper 12 mg/kg, time upper 168 hrs
[3] = test system: Human immunodeficiency virus 1; assay: Antiviral activity against HIV1 NL4-3 infected in human C8166 cells assessed as inhibition of viral replication by measuring reduction in p24 antigen level incubated for 3 to 7 days by ELISA analysis; format: functional, organism-based; settings: Human immunodeficiency virus 1, NL4-3, C8166
[4] = AUC (0 to t) in Sprague-Dawley rat at 10 mg/kg, IG measured upto 24 hrs by LC-MS/MS analysis; format: ADME, organism-based; design: dose 10 mg/kg, time < 24 hrs, route ig; settings: in vivo, po
[5] = Toxicity in Sprague-Dawley rat assessed as effect on food consumption at 10 to 30 mg/kg, po administered once daily for 4 weeks and measured after 24 hrs post last dose; format: organism-based; settings: in vivo, 696 h, dose 10-30 mg/kg
[6] = Acute toxicity in Sprague-Dawley rat assessed as effect on food intake at 500 to 2000 mg/kg, IG measured for 14 days; format: organism-based; settings: in vivo, po, 336 h, dose 500-2000 mg/kg, time 14 day
[7] = AUC (0 to t) in female Sprague-Dawley rat at 100 mg/kg, IG measured at 0.5 hrs LC-MS/MS analysis; format: ADME, organism-based; design: time 0.5 hrs, dose 100 mg/kg, route ig; settings: in vivo, po
[8] = test system: Human immunodeficiency virus 1; assay: Antiviral activity against HIV-1 harboring integrase G140S/Q148H double mutant infected in human TZM-bl cells assessed as inhibition of viral replication incubated for 3 to 7 days by luciferase assay; format: functional, organism-based; settings: Human immunodeficiency virus 1, TZM-bl
[9] = AUC (0 to t) in male Sprague-Dawley rat at 10 mg/kg, IG measured at 0.5 hrs LC-MS/MS analysis; format: ADME, organism-based; design: dose 10 mg/kg, time 0.5 hrs, route ig; settings: in vivo, po
[10] = Bioavailability in Sprague-Dawley rat at 5 mg/kg, IG measured upto 24 hrs by LC-MS/MS analysis; format: ADME, organism-based; settings: in vivo, po
[11] = Acute toxicity in Sprague-Dawley rat assessed as death at 500 to 2000 mg/kg, IG measured for 14 days; format: organism-based; settings: in vivo, po, 336 h, dose 500-2000 mg/kg, time 14 day
[12] = Half life in Sprague-Dawley rat at 2.5 mg/kg, IG measured upto 24 hrs by LC-MS/MS analysis; format: ADME, organism-based; settings: in vivo, po
[13] = AUC (0 to t) in Sprague-Dawley rat at 5 mg/kg, iv measured upto 24 hrs by LC-MS/MS analysis; format: ADME, organism-based; design: dose 5 mg/kg, time < 24 hrs, route iv; settings: in vivo
[14] = Tmax in Sprague-Dawley rat at 10 mg/kg, IG measured upto 24 hrs by LC-MS/MS analysis; format: ADME, organism-based; settings: in vivo, po
[15] = test system: Human immunodeficiency virus 1; assay: Antiviral activity against HIV1 IIIB infected in human C8166 cells assessed as inhibition of viral replication by measuring reduction in p24 antigen level incubated for 3 to 7 days by ELISA analysis; format: functional, organism-based; settings: Human immunodeficiency virus 1, IIIB
[16] = AUC (0 to t) in female Sprague-Dawley rat at 30 mg/kg, IG measured at 0.5 hrs LC-MS/MS analysis; format: ADME, organism-based; design: time 0.5 hrs, dose 30 mg/kg, route ig; settings: in vivo, po
[17] = Tmax in Sprague-Dawley rat at 5 mg/kg, IG measured upto 24 hrs by LC-MS/MS analysis; format: ADME, organism-based; settings: in vivo, po
[18] = Half life in Sprague-Dawley rat at 5 mg/kg, IG measured upto 24 hrs by LC-MS/MS analysis; format: ADME, organism-based; settings: in vivo, po
[19] = Apparent oral clearance in Sprague-Dawley rat at 5 mg/kg, IG measured upto 24 hrs by LC-MS/MS analysis; format: ADME, organism-based; settings: in vivo
[20] = AUC (0 to t) in female Sprague-Dawley rat at 30 mg/kg, IG measured at 24 hrs LC-MS/MS analysis; format: ADME, organism-based; design: dose 30 mg/kg, time 24 hrs, route ig; settings: in vivo, po
[21] = test system: Human immunodeficiency virus 1; assay: Antiviral activity against HIV1 A17 infected in human C8166 cells assessed as inhibition of viral replication by measuring reduction in p24 antigen level incubated for 3 to 7 days by ELISA analysis; format: functional, organism-based; settings: Human immunodeficiency virus 1, A17, C8166
[22] = Toxicity in Sprague-Dawley rat assessed as effect on body weight at 10 to 30 mg/kg, po administered once daily for 4 weeks and measured after 24 hrs post last dose; format: organism-based; settings: in vivo, 696 h, dose 10-30 mg/kg
[23] = Cytotoxicity against HEK293T cells assessed as reduction in cell viability by MTT assay; format: toxicity, cell-based, HEK-293T; settings: human
[24] = Cmax in Sprague-Dawley rat at 2.5 mg/kg, IG measured upto 24 hrs by LC-MS/MS analysis; format: ADME, organism-based; design: time < 24 hrs, dose 2.5 mg/kg, route ig; settings: in vivo, po
[25] = Acute toxicity in Sprague-Dawley rat assessed as effect on brain damage at 500 to 2000 mg/kg, IG measured on day 15; format: organism-based; settings: in vivo, po, 360 h, dose 500-2000 mg/kg, time 15 day
[26] = test system: Human immunodeficiency virus 1; assay: Antiviral activity against HIV1 IIIB infected in human C8166 cells assessed as inhibition of syncytia formation incubated for 3 to 7 days by syncytia assays; format: functional, organism-based; settings: Human immunodeficiency virus 1, IIIB
[27] = AUC (0 to t) in female Sprague-Dawley rat at 10 mg/kg, IG measured at 0.5 hrs LC-MS/MS analysis; format: ADME, organism-based; design: time 0.5 hrs, dose 10 mg/kg, route ig; settings: in vivo, po
[28] = AUC (0 to t) in male Sprague-Dawley rat at 100 mg/kg, IG measured at 0.5 hrs LC-MS/MS analysis; format: ADME, organism-based; design: dose 100 mg/kg, time 0.5 hrs, route ig; settings: in vivo, po
[29] = AUC (0 to t) in Sprague-Dawley rat at 5 mg/kg, IG measured upto 24 hrs by LC-MS/MS analysis; format: ADME, organism-based; design: time < 24 hrs, dose 5 mg/kg, route ig; settings: in vivo, po
[30] = test system: Human immunodeficiency virus 1; assay: Antiviral activity against HIV1 TC-1 infected in human PBMC assessed as inhibition of viral replication by measuring reduction in p24 antigen level incubated for 3 to 7 days by ELISA analysis; format: functional, organism-based; settings: Human immunodeficiency virus 1, TC-1, PBMC
[31] = AUC (0 to t) in Sprague-Dawley rat at 2.5 mg/kg, IG measured upto 24 hrs by LC-MS/MS analysis; format: ADME, organism-based; design: time < 24 hrs, dose 2.5 mg/kg, route ig; settings: in vivo, po

SMILES: C#C[C@]1(CO)O[C@@H](n2cnc3c(N)nc(F)nc32)[C@@H](F)[C@@H]1O
- AUC(0-t) at 24 h [1]: 8150 ng·h/mL
- Drug metabolism [2]: Metabolite_Detected
- EC50 [3]: 1.18 nM
- AUC(0-t) at 24 h [4]: 8660 ng·h/mL
- Activity [5]: Non-Toxic
- Activity [6]: Non-Toxic
- AUC(0-t) at 0.5 h [7]: 87400 ng·h/mL
- EC50 [8]: 2.84 nM
- AUC(0-t) at 0.5 h [9]: 6860 ng·h/mL
- bioavailability [10]: 67.5%
- Activity [11]: Non-Toxic
- half-life [12]: 120 min
- AUC(0-t) at 24 h [13]: 5290 ng·h/mL
- Tmax [14]: 1 h
- EC50 [15]: 6.5 nM
- AUC(0-t) at 0.5 h [16]: 22800 ng·h/mL
- Tmax [17]: 33.6 min
- half-life [18]: 192 min
- CL/F [19]: 25 mL/min/kg
- AUC(0-t) at 24 h [20]: 26500 ng·h/mL
- EC50 [21]: 1.53 nM
- Activity [22]: Non-Toxic
- CC50 [23]: > 100 µM
- Cmax [24]: 630 ng/mL
- Activity [25]: Non-Toxic
- EC50 [26]: 3.51 nM
- AUC(0-t) at 0.5 h [27]: 7020 ng·h/mL
- AUC(0-t) at 0.5 h [28]: 89300 ng·h/mL
- AUC(0-t) at 24 h [29]: 3630 ng·h/mL
- EC50 [30]: 6.3 nM
- AUC(0-t) at 24 h [31]: 1720 ng·h/mL
